From patent publication US10654815B2, “Urea compound and preparation method and application thereof” (SHENZHEN CHIPSCREEN BIOSCIENCES CO., LTD., priority 2016, dated 2020)

Tests used:
PD-1/PD-L1 binding = biological target: T1, PD-1/PD-L1 binding (UniProt Q9NZQ7); assay: In-vitro PD-1/PD-L1 binding inhibition (HTRF); set-up: species or system human; settings: His-PD-1 100 nM, PD-L1-Fc 2 nM final, read-out: IC50 on inhibiting PD-1/PD-L1 binding in-vitro
T1 construct: fused on or other part: human IgG Fc (hFc tag) fused to PD-L1
Excerpt: Main Principle of the Experiment (HTRF)
Homogeneous Time-Resolved Fluorescence (HTRF): The PD-1 protein carried an His tag and the Fc fusion protein of its ligand PD-L1 carried an hFc tag. An anti-hFc antibody labeled with a chelating marker of Eu element and an anti-His antibody labeled with XL66 were respectively combined with two corresponding tags. After laser excitation (320 nm), energy was transferred from the donor Eu to the acceptor XL665, so that the XL665 emitted light (665 nm). […] The basic detection principle was as follows (see FIG. 3):
The His-tagged human recombinant PD-1 protein (Cat#: 80448-R08H-100) and human recombinant PD-L1-Fc fusion protein (Cat#: 90251-CO2H-100) were purchased from Sino Biological Inc., and the anti-hFc-Eu3^+ and anti-His-XL665 antibody were purchased from Cisbio. Other related reagents such as dilution buffer, detection buffer were all purchased from Cisbio. The fluorescence detection instrument Tecan (Spark 10M) was purchased from Tecan, Switzerland.
The experimental process was carried out in accordance with the procedure required by the instruction manual for the test reagent […]. The process was as follows:
(1) Preparation of the experiment: The test compound was diluted to a different concentration gradient with a dilution buffer (the maximum final concentration was 10 μM in 20 μL final reaction system), the His-PD-1 protein was diluted to 800 nM (the final concentration was 100 nM in 20 μL final reaction system), and the PD-L1-Fc fusion protein was diluted to 16 nM (the final concentration was 2 nM). The anti-His-XL665 antibody and the anti-hFc-Eu^3+ antibody were diluted 20-fold and 100-fold, respectively, with the test diluent according to the reagent requirements.
(2) 5 μL of the test compound, 2.5 μL of PD-L1 protein and 2.5 μL of PD-1 protein solution were evenly mixed, and then reacted at room temperature for 15 min. Subsequently, 5 μL of anti-His-XL665 antibody and 5 μL of anti-hFc-Eu^3+ antibody were added to the system, and the incubation was continued for 3 hours followed by detection.
(3) At the same time of detection of the reaction, control groups were set, including a 0-inhibited positive control to which no test compound was added, and a negative control to which no PD-1 protein was added. All tests were run in duplicate.
(4) The fluorescence signal of each well was detected by a fluorescence detector Tecan (Spark 10M) with an excitation wavelength of 320 nm and detected emission wavelengths of 620 nm and 665 nm, respectively. The intensity of PD-1/PD-L1 binding to each other referred to the fluorescence signal ratio Em665/Em620.
(5) Formula for calculating the binding inhibition rate of test compounds: inhibition rate (%)=[1−(ratio of fluorescence signals of detection holes−negative control)/(ratio of fluorescence signals of 0-inhibited positive control−negative control)×100%. After calculating the binding inhibition rate of the test compounds with different concentration gradients, the 50% inhibitory concentration (IC50) was further calculated.

[1] = test system: T cell leukemia cell line (Jurkat cell); assay: Cytotoxic activity, MTS assay in T cell line; type: cell-based; settings: Homo sapiens, Jurkat cells, compound 2 μM, 72 h, relative to solvent control (DMSO)
Excerpt: In order to rule out the biological function changes of T cell caused by cytotoxic effects of the compounds themselves, MTS assay was used as a routine cytotoxicity detection method. The basic principle was that the dehydrogenase in the living cell mitochondria was capable of metabolizing and reducing the new type yellow […] compound MTS to formazan. The amount of formazan product measured at 490 nm absorbance (OD) was directly proportional to the number of viable cells in the culture, and thus whether the test compound itself had the ability of inhibiting cell growth or killing cells can be judged basing on the OD value.
In this experiment, the T cell leukemia cell line (Jurkat cell) was evaluated for its cell growth activity according to the MTS assay.
The MTS was carried out in a 96-well plate according to a routine experimental procedure.
Cell lines were inoculated into a 96-well plate at an appropriate concentration (approximately 20,000 cells/well), test compounds (final concentration 2 μM) were added, and at the same time solvent control (DMSO) and negative control wells were set, and the well was set in triplicate. The cells were further cultured for 72 h followed by detection.
After the culture, 20 μL of the a pre-prepared mixture of MTS and PMS (mixed in a ratio of 20:1) was added directly to the culture well, and incubated in a 37° C. incubator for 2 h, and then detection was conducted using a microplate reader (490 nm).
The background value of the negative control was subtracted, and the relative cell activity (%) of the test compound on cell growth=(OD value of the test well/OD value of the solvent control well)×100%.

[2] = test system: PD-1/PD-L1 interaction in human peripheral mononuclear cells (PBMC); assay: PD-1 signal inhibition at cellular level: IL-2 secretion of SEB-stimulated PBMC (ELISA); type: cell-based; settings: SEB 200 ng/mL-stimulated volunteer PBMC, compound 2 μM, 96 h; compared to anti-human PD-1 antibody (5 μg/mL)

| Compound | IC50 (PD-1/PD-L1 binding) [µM] | activity at 2 µM [1] [%] | Activity of promoting IL-2 (%) [2] [%] |
| --- | --- | --- | --- |
| Cc1c(COc2ccc(CNCCNC(=O)NCCN3CCOCC3)c(OCc3cccc(C#N)c3)c2)cccc1-c1ccccc1 [Compound I-1, 1-((2-(2-(3-cyanophenyl)methoxy-4-(2-methyl-(1,1′-diphenyl)-3-yl-methoxy))benzylamino)-2-ethyl)-3-(2-(N-morpholine)ethyl)urea] | 1.71 | 102 |  |
| Cc1c(COc2ccc(CNCCNC(=O)NCCO)c(OCc3cccc(C#N)c3)c2)cccc1-c1ccccc1 [Compound I-2, 1-((2-(2-(3-cyanophenyl)methoxy-4-(2-methyl-(1,1′-diphenyl)-3-yl-methoxy))benzylamino)-2-ethyl)-3-(2-hydroxyethyl)urea] | 0.581 | 100 |  |
| Cc1cc(CNCCNC(=O)NC(CO)(CO)CO)c(OCc2cncc(C#N)c2)cc1OCc1cccc(-c2ccc3c(c2)OCCO3)c1C#N [Compound I-5] | 0.0364 | 94.6 | 53 |
| C=C(NC(=O)NCCNCc1cc(C)c(OCc2cccc(-c3ccc4c(c3)OCCO4)c2C#N)cc1OCc1cncc(C#N)c1)C(=O)O [Compound I-6] | 0.0702 | 92.1 | 56.3 |
| Cc1cc(CNCCOCCNC(=O)NCCO)c(OCc2cncc(C#N)c2)cc1OCc1cccc(-c2ccc3c(c2)OCCO3)c1C#N [Compound I-7] | 0.0437 | 94.5 | 58.1 |
| Cc1cc(CNCCNC(=O)NCCN(C)C)c(OCc2cncc(C#N)c2)cc1OCc1cccc(-c2ccc3c(c2)OCCO3)c1C#N [Compound I-11] | 0.0761 | 95.6 | 51.7 |

Now from value to compound, other results behind:

| IC50 (PD-1/PD-L1 binding) [µM] | Compound | activity at 2 µM [1] [%] | Activity of promoting IL-2 (%) [2] [%] |
| --- | --- | --- | --- |
| 3.12 | Cc1c(COc2ccc(CNCCNC(=O)N[C@@H](COC(C)(C)C)C(=O)OC(C)(C)C)c(OCc3cccc(C#N)c3)c2)cccc1-c1ccccc1 [Compound I-3, 1-((2-(2-(3-cyanophenyl)methoxy-4-(2-methyl-(1,1′-diphenyl)-3-yl-methoxy))benzylamino)-2-ethyl)-3-(2-tert-butyl-O-tert-butyl-L-serinate-2-yl)urea] | 99.7 |  |
| 0.0375 | Cc1cc(CNCCNC(=O)NCCO)c(OCc2cncc(C#N)c2)cc1OCc1cccc(-c2ccc3c(c2)OCCO3)c1C#N [Compound I-4] | 93.2 |  |
| 0.061 | Cc1cc(CNCCNC(=O)NCCN2CCOCC2)c(OCc2cncc(C#N)c2)cc1OCc1cccc(-c2ccc3c(c2)OCCO3)c1C#N [Compound I-8] | 95.1 |  |
| 0.0281 | Cc1cc(CNCCOCCNC(=O)NCCS(C)(=O)=O)c(OCc2cncc(C#N)c2)cc1OCc1cccc(-c2ccc3c(c2)OCCO3)c1C#N [Compound I-9] | 99.6 |  |
| 0.0733 | Cc1cc(CNCCOCCNC(=O)NCCN(C)C)c(OCc2cncc(C#N)c2)cc1OCc1cccc(-c2ccc3c(c2)OCCO3)c1C#N [Compound I-10] | 97.1 |  |
| 0.0491 | Cc1cc(CNCCNC(=O)NCCS(C)(=O)=O)c(OCc2cncc(C#N)c2)cc1OCc1cccc(-c2ccc3c(c2)OCCO3)c1C#N [Compound I-12] | 91.6 |  |
| 0.0158 | Cc1cc(CNCCNC(=O)N[C@@H](CO)C(=O)O)c(OCc2cncc(C#N)c2)cc1OCc1cccc(-c2ccc3c(c2)OCCO3)c1C#N [Compound I-13] | 91.1 |  |
| 0.197 | C=CC(=O)NCCNC(=O)NCCNCc1cc(C)c(OCc2cccc(-c3ccc4c(c3)OCCO4)c2C#N)cc1OCc1cncc(C#N)c1 [Compound I-14] | 102 |  |
